Read-outs that look alike come from different tables or passages of the source. Starred links: 1 amine or outer side, 2 acyl side, 3 side chain; linkers in the order of their positions; H or OH if unused. Positions of bridges follow the written chain, without caps; N, C: chain ends. Non-standard residues stand in square brackets, D forms with d. Residues, ends and D or L forms follow the SMILES beside them. ξ: configuration not given here. *: point of attachment. ξAbu(βξ-NH2) = CC(N[*:3])C(N[*:1])C(=O)[*:2]; ξAsp(βξ-Me) = CC(C(=O)O)C(N)C(=O)O; X2 = O=C(CCc1ccc(N[*:1])cc1)[*:2]; ξAbu(3ξ-NH2) = CC(N)C(N)C(=O)O; Lauroyl = CCCCCCCCCCCC(=O)*; Pip = O=C(O)[CH]1CCCCN1

The subject of data set [1] is Staphylococcus aureus (MSSA). The essentials: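 Broth microdilution MIC per NCCLS M7-A6 with doubling serial dilutions, in cation-adjusted Mueller-Hinton broth supplemented with 0.625 mM calcium.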
Data set [2] can be described thus: In vivo half-life after single i.v. administration, mice. The settings on record: female, Swiss CD1, mouse, plasma, iv, 10 mg/kg. Here is the method:
Yet other exemplary in vivo models can be used to characterize the pharmacokinetics and pharmacodynamic parameters of antimicrobial compounds of this disclosure. Some parameters that can be measured include an in vivo half-life of a compound, elimination rate and clearance, volume of distribution, and bioavailability. For example, briefly, compounds can be administered as a single i.v. or oral (p.o.) dose in mice or rats. At various time points (ranging from 1 minute to 72 hours), blood from treated animals is collected and the concentration of lipopeptide derivative in the ex vivo plasma can be quantified by, for example, liquid chromatography with mass spectrometric detection (LC/MS). After quantification, pharmacokinetics parameters can be calculated using methods known in the art, such as a one compartment model with mono-exponential decay and linear regression analysis (see, e.g., Fantin et al., Antimicrob. Agents Chemotherap. 35: 1413. 1991).
A pharmacokinetic parameter that can be measured, and which aids in determining efficacy, after a single i.v. administration of an antimicrobial lipopeptide derivative of the instant disclosure is the systemic half-life of the compound. Briefly, test compounds were dissolved in a 5% mannitol solution (pH was then adjusted) to a concentration of 1 mg/mL (w/v). A single intravenous injection in the lateral caudal vein of Swiss CD1 mice (5 to 6 weeks old, female) or Sprague Dawley rats (male) was used to administer the lipopeptide derivative at a final dose of 10 mg/kg. At various time points (ranging from about 4 minutes to about 24 hours for mice, and 48 or 72 hours for rats) mice were sacrificed and blood was harvested. The concentration of lipopeptide derivative in ex vivo plasma was quantified using liquid chromatography (LC) with mass spectrometric detection (MS).

Data set [3] deals with S. aureus Smith (SAU0017, ATCC 19636). Nature of the data set: Intraperitoneal murine model of protection against infection (ED50, Table 21). It is filed as in vivo, Staphylococcus aureus. The settings on record: Swiss CD1 mice infected i.p., compound i.v. From the text:
(§1) A variety of in vivo models may be used to assess the antimicrobial properties of lipopeptide derivative compounds of this disclosure. For example, antimicrobial compounds of the instant disclosure may be tested for efficacy by measuring a compound's ability to protect a mouse against a microbial infection, such as an infection or disease caused by or related to Gram-positive bacteria, including Staphylococcus aureus, Streptococcus pneumoniae, and Enterococcus faecalis. […] A certain period after infection, mice are then individually treated, for example intravenously (i.v.), with a lipopeptide derivative of this disclosure.
(§2) Antimicrobial lipopeptide derivatives of the instant invention were tested for antimicrobial activity against Gram-positive bacteria in an intraperitoneal (i.p.) murine model (i.e., bacteria were injected i.p. and lipopeptide compounds were administered intravenously (i.v.)). Mice were infected with Staphylococcus aureus, Streptococcus pneumoniae, or Enterococcus faecalis, which were prepared as follows: S. aureus Smith (SAU0017, ATCC 19636) were grown in culture overnight on trypticase soy broth, harvested and then resuspended in fresh media containing 5% mucin (Sigma Chemical Co.); S. pneumoniae (SPN 0032, ATCC 10813) were grown overnight on blood agar plates and re-suspended in 0.9% sterile saline; and E. faecalis EFS0040 (clinical isolate) were grown overnight in culture on blood heart infusion broth, washed and resuspended in 0.9% saline and mixed with equal volume of sterile fecal rat extract. Swiss CD1 mice were each infected i.p. with bacteria at the following doses: S. aureus at 10^6 CFU/mouse; S. pneumoniae at 10^2 CFU/mouse; or E. faecalis at 10^7.5 CFU/mouse. […] The ED50 for each compound was calculated using the method of Reed and Meunch (Am. J. Hyg. 27: 493, 1938).

Data set [4] concerns E. faecalis EFS0040 (clinical isolate). The description is as above. It is filed as in vivo, Enterococcus faecalis. Conditions: Swiss CD1 mice infected i.p., compound i.v.
Excerpt: as §1, §2

Data set [5] can be described thus: Acute toxicity, maximum tolerated dose (MTD). Conditions: Swiss CD1, mouse, in vivo, iv. Here is the method:
Another measure of toxicity is the maximum tolerated dose (MTD), which is determined as a dose level that is not accompanied by mortality or life-threatening toxicity. The dose ratio between toxic and therapeutic effect is the therapeutic index. […] The data obtained from these cell culture assays and animal studies can be used in formulating a dosage range that is not toxic for use in human subjects. […] The dosage may vary within this range depending upon the dosage form employed and the route of administration utilized. The exact formulation, route of administration and dosage can be chosen by the individual physician in view of the patient's condition or need thereof (see, e.g., Fingl et al., 1975, In: The Pharmacological Basis of Therapeutics, Chapter 1).
For example, to examine acute toxicity, lipopeptide antibiotics of the invention can be tested in an animal model, such as Swiss CD1 mice, to determine the MTD. In certain embodiments, the animals used to test toxicity of a particular compound can be approximately 5-6 weeks old at the start of the experiment and weigh 22-26 g. The lipopeptides may be administered intravenously (i.v.) into, for example, the caudal tail vein at dose levels that range from about 50 to about 500 mg/kg, or from about 75 to about 250 mg/kg, or from about 100 to about 200 mg/kg, or at a dose range at or below 100 mg/kg. The animals are generally observed immediately after administration, 1-2 hours post administration, 5-8 hours post administration, and once daily thereafter. Observations include both the activity level of the mouse as well as any physical side effects from the administered dose. The animal weight is recorded on day 0 (immediately before dosing) and on day 7.

In the case of `CCCCCCCCCCCCCC(=O)NC(CC(=O)O)C(=O)NC1C(=O)N2CCCCC2C(=O)NC(C(C)C(=O)O)C(=O)NC(CC(=O)O)C(=O)NCC(=O)NC(CC(=O)O)C(=O)NCC(=O)NC(C(C)NC(=O)CNC)C(=O)NC(C(C)C)C(=O)N2CCCC2C(=O)NC1C` (stereo not drawn) [Compound 60, C14-Amphomycin-9-Sar], the minimal inhibitory concentration (MIC) in data set [1] (S. aureus (MSSA), CAMHB supplemented with 0.625 mM calcium, 24 hours at about 37° C., a range = compound tested multiple times) is listed as 60/0.5 μg/mL. In addition, the half-life in data set [2] came out at 4.13 h. In addition, in data set [3], the “ED50 in Mice, S. aureus (SAU0017)” value was determined as 10 mg/kg.
For `CC(=O)Nc1ccc(C(=O)NC(CC(=O)O)C(=O)NC2C(=O)N3CCCCC3C(=O)NC(C(C)C(=O)O)C(=O)NC(CC(=O)O)C(=O)NCC(=O)NC(CC(=O)O)C(=O)NCC(=O)NC(C(C)N)C(=O)NC(C(C)C)C(=O)N3CCCC3C(=O)NC2C)cc1` (stereo not drawn) [Compound 85, C2-PABA-Amphomycin], in data set [1] (24 h), the minimum inhibitory concentration (MIC) fell in the range of 2 to 4 µg/mL. This molecule registered a half-life in data set [2] of 5.17 h. In addition, the “ED50 in Mice, S. aureus (SAU0017)” value in data set [3] stood at 6.5 mg/kg. The “ED50 in Mice, E. faecalis (EFS0040)” value in data set [4] is given as 5.7 mg/kg. Moreover, in data set [5], the maximal tolerated dose (MTD) at 7 days lay within 50 to 200 mg/kg.
Turning to `CCCCCCCCCCCC(=O)Nc1ccc(CCC(=O)NC(CC(=O)O)C(=O)NC2C(=O)N3CCCCC3C(=O)NC(C(C)C(=O)O)C(=O)NC(CC(=O)O)C(=O)NCC(=O)NC(CC(=O)O)C(=O)NCC(=O)NC(C(C)N)C(=O)NC(C(C)C)C(=O)N3CCCC3C(=O)NC2C)cc1` (stereo not drawn) [Compound 108, C12-(p-Aminophenylpropanoyl)-Amphomycin] (Lauroyl-[X2]D[ξAbu(βξ-NH2)][Pip][ξAsp(βξ-Me)]DGDG[ξAbu(3ξ-NH2)]VP; lactam 3-C; configuration not given here), the MIC in data set [1] (24 h) is 0.5 µg/mL. This molecule also yielded a half-life in data set [2] of 4.55 h. Besides, the “ED50 in Mice, S. aureus (SAU0017)” value in data set [3] stood at 6.5 mg/kg. Further, in data set [5], the MTD at 7 days lay in the range of 50 to 200 mg/kg.

As usually defined, the MIC is the lowest concentration found to suppress growth. By half-life is commonly meant the time in which the quantity being followed falls by half. A high value points to slow loss. One may read the MTD as the largest dose that counted as tolerated. Read a high MTD as better tolerability.

(Values after patent US7868135B2, “Compositions of lipopeptide antibiotic derivatives and methods of use thereof” (priority 2003, dated 2011).)
